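Exposure lasted 48 hours, with cells grown in 96-well plates and compounds tested at five concentrations. Abbreviation: GI50, concentration required for 50% inhibition of growth. TGI: total growth inhibition.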
System: MDA-MB-468 breast
Assay: NCI tumour cell line growth inhibition, 48 h

Compound: CN1C(=O)N(C)C2C1NN=c1s/c(=C\c3ccccc3F)c(=O)n12 (stereo not drawn)
- GI50: 211 nM
- TGI: > 100000 nM

Compound: CSCCC(NC(=O)CNC(=O)C(CC(=O)O)NC(=O)C(NC(=O)C(NC(=O)C(NC(=O)CNC(=O)C(CCC(N)=O)NC(=O)C(CCSC)NC(=O)C(CC(=O)O)NC(=O)C(C)NC(=O)C(C)NC(=O)C(NC(=O)C(CO)NC(=O)C(N)CC(C)C)C(C)O)C(C)C)C(C)C)C(C)O)C(=O)NC(C)C(=O)NC(CO)C(=O)NCC(=O)NC(CC(C)C)C(=O)NC(CC(=O)O)C(=O)NC(CCCCN)C(=O)NC(CC(=O)O)C(=O)NC(Cc1ccc(O)cc1)C(=O)NC(CC(C)C)C(=O)NC(CCCCN)C(=O)N1CCCC1C(=O)NC(CC(=O)O)C(=O)NC(CC(=O)O)C(=O)O (stereo not drawn)
- GI50: > 82500 nM
- TGI: > 82500 nM

Compound: CCc1c2c(nc3ccc(OC(=O)NCc4ccc(B5OC(C)(C)C(C)(C)O5)cc4)cc13)-c1cc3c(c(=O)n1C2)COC(=O)[C@]3(O)CC
- GI50: < 12.6 nM
- TGI: 89.4 nM

Compound: O=C(Nc1ccc(Cl)cc1)Nc1ccc(Oc2nncc3ccccc23)cc1
- GI50: 752 nM
- TGI: 2520 nM

Compound: Clc1ccc(N2CCN(CCCN3CCN(c4cccc(Cl)c4)CC3)CC2)cc1
- GI50: 1630 nM
- TGI: 10800 nM

Compound: Cc1cc(C(=O)NC(C)(C)C)cc(C#Cc2ccc3c4c(oc3c2)C(C)(C)c2cc(NS(C)(=O)=O)ccc2C4=O)n1
- GI50: 3180 nM
- TGI: > 100000 nM

Compound: COc1ccc(C(=O)n2nc(/C=C/c3ccc(O)c(OC)c3)cc2/C=C/c2ccc(O)c(OC)c2)cc1
- GI50: 370 nM
- TGI: 2000 nM

Compound: Cn1c2c(c3ccc(-c4ccn[nH]4)cc3c1=O)C(=O)c1ccccc1-2
- GI50: 4900 nM
- TGI: > 100000 nM

Compound: Oc1ccccc1N=Cc1c(O)ccc2ccccc12
- GI50: 7090 nM
- TGI: 29500 nM

Compound: CCN(CC)CCOc1nc2c3ccc(Cl)cc3nn2c2ccccc12
- GI50: 1510 nM
- TGI: 3570 nM

Compound: CS(=O)(=O)Nc1ccc(Nc2c3ccccc3nc3cc(N)ccc23)cc1
- GI50: 106 nM
- TGI: 973 nM

Compound: O=C1/C(=C/c2ccc(O)c(O)c2)COc2ccc(-c3ccccc3)cc21
- GI50: 731 nM
- TGI: 2640 nM

Compound: COc1ccccc1/C=C/C=N/NC1=NC2C(S1)N(C)C(=O)N2C (stereo not drawn)
- GI50: 2130 nM
- TGI: 7460 nM

Compound: Cc1ccc(-c2cc3c(NC(=O)C4CC4)ncnc3o2)cc1
- GI50: > 25000 nM
- TGI: > 25000 nM

Compound: CN1CCN(c2ccc(N3Cc4ccccc4OC4=C3C(=O)c3c(O)ccc(O)c3C4=O)cn2)CC1
- GI50: 229 nM
- TGI: 578 nM

Compound: COc1cc(-c2cc(/C=C/C(=O)c3ccc(N)cc3)[nH]n2)cc(OC)c1OC
- GI50: 1010 nM
- TGI: 2910 nM

Compound: CC(C)CCC[C@@H](C)[C@H]1CCC2C3=CCn4c(=O)ccc(=O)n4C3CC[C@@]21C (stereo partly drawn)
- GI50: 887 nM
- TGI: 2980 nM

Compound: O=C(O[C@H]1CN[C@H](C#Cc2cc3ncnc(Nc4ccc5c(cnn5Cc5ccccc5)c4)c3s2)C1)N1CCOCC1
- GI50: 209 nM
- TGI: 2580 nM

Compound: O=C(COc1cccc(/C=C2/Oc3ccccc3C2=O)c1)Nc1nccs1
- GI50: 2160 nM
- TGI: 9070 nM

Source: PubChem BioAssay (NCI)
